Data published in US20170312260A1 (LAUNX BIOMEDICAL CO., LTD., priority 2014, published 2017).
Where “and” joins values, the source holds several entries; their conditions need not be identical. Identical values can stand only once. Like-named read-outs stand apart in the source and are kept apart here.

What was measured:
[1] = tested on: HepG2 (hepatocellular carcinoma); assay: WST-1 cell viability analysis, HepG2; type: cell-based; conditions: Homo sapiens, HepG2, 10 μM, 72 hours, read-out: viability (survival rate) of HepG2 cells
[2] = tested on: gastric cancer cells (AGS); assay: Animal model test, subcutaneous tumor in nude mice; type: in vivo, female mice (BALB/cAnN.Cg-Foxn1^nu/CrlNarl); conditions: for tumor volume growth, average / tumor volume, average: average of mice; for tumor longest length / tumor volume / tumor volume growth / tumor width: single mice A-C
Protocol: Animal Model Test of […] with Dose 100 mg/kg/Day and 200 mg/kg/day
(§1) In this invention, the female mice were (BALB/cAnN.Cg-Foxn1^nu/CrlNarl) purchased from National Laboratory Animal Center (Taiwan)). The weight of the mice were 21±1 g. These mice were subcutaneously injected with gastric cancer cells (AGS) and then put these mice into different cages at random. The drug test experiment was divided into three groups, include “normal control group”, “low dose group (100 mg/kg/day)”, and “high dose group (200 mg/kg/day)”. These mice were then injected test drug intraperitoneally once daily […]. The tumor sizes and body weight were measured twice a week. The tumor sizes were measured and calculated by formula: (L×W^2)/2. L represents the tumor longest length. W represents the tumor shortest diameter.

[3] = WST-1 cell viability analysis, BEAS-2B; type: cell-based; conditions: human
Source text: (§2) Subculture the different types of cancer cell lines. The cancer cells includes lung cancer, gastric cancer, hepatic cancer, colon cancer, skin cancer, cervical cancer, prostate cancer, bladder cancer, breast cancer, leukemia, pancreatic cancer, ovarian cancer, tongue cancer, osteosarcoma, and renal cancer. The normal cells used in the control group included kidney cell (HEK293) and human bronchial epithelial cell line BEAS-2B (as shown in Table 1).
(§3) The cell numbers were counted and reseed as 2×10^6 in cell culture plate/flask. Then, the culture medium were added to a volume of 10 ml, and the cells were cultured for 2-3 days. Then, the cells were suspended for loading into 96-well plates. The number of cells was 3000 and the volume of the culture medium was 100 μl each well.
(§4) Removing the original culture medium from 96-well plate. Then add 100 μl of commercially drug at a concentration of 10 μM per well. After 72 hours, add the diluted WST-1 reagent to the well with 100 μl/well, and the diluted WST-1 reagent was acquired from the dilution of 9:1 medium and WST-1 stock reagent. Finally, the total volume of each well was 200 μl/well. Culture the 96-well plate at 37° C. for 30 to 90 minutes. Detecting and calculate the survival rate of each cancer cells with an ELISA reader at OD450 nm.

[4] = tested on: 786-O (Renal adenocarcinoma); assay: WST-1 cell viability analysis, 786-O; type: cell-based; conditions: Homo sapiens
Protocol: as §3, §4

[5] = tested on: LoVo(Colorectal Adenocarcinoma); assay: WST-1 cell viability analysis, LoVo; type: cell-based; conditions: Homo sapiens
Protocol: as §3, §4

normal cells = assay: Toxicity to normal cells (overall statement); type: cell-based
Source text: as §2, §4

[6] = Animal model test, body weight and health status of mice; type: in vivo, female mice (BALB/cAnN.Cg-Foxn1^nu/CrlNarl); conditions: for weight: single mice A-C
Protocol: as §1

[7] = tested on: breast cancer cell line MDA-MB-231; assay: WST-1 cell viability analysis, MDA-MB-231; type: cell-based; conditions: Homo sapiens
[8] = tested on: H1650 (lung adenocarcinoma); assay: WST-1 cell viability analysis, H1650; type: cell-based; conditions: Homo sapiens
Protocol: as §3, §4

[9] = high dose (200 mg/kg/day) i.p., Fifth measurement
[10] = high dose (200 mg/kg/day) i.p., First measurement
[11] = high dose (200 mg/kg/day) i.p., First measurement, 200 mg/kg/day
[12] = high dose (200 mg/kg/day) i.p., Fourth measurement
[13] = high dose (200 mg/kg/day) i.p., Second measurement
[14] = high dose (200 mg/kg/day) i.p., Second measurement, 200 mg/kg/day
[15] = high dose (200 mg/kg/day) i.p., Third measurement
[16] = low dose (100 mg/kg/day) i.p., Fifth measurement
[17] = low dose (100 mg/kg/day) i.p., First measurement
[18] = low dose (100 mg/kg/day) i.p., First measurement, 100 mg/kg/day
[19] = low dose (100 mg/kg/day) i.p., Fourth measurement
[20] = low dose (100 mg/kg/day) i.p., Second measurement
[21] = low dose (100 mg/kg/day) i.p., Second measurement, 100 mg/kg/day
[22] = low dose (100 mg/kg/day) i.p., Third measurement
[23] = low dose (100 mg/kg/day) i.p., Third measurement, 100 mg/kg/day

CC1=C(C(=O)OC(C)C)C(c2cccc([N+](=O)[O-])c2)C(C(=O)OC2CN(C(c3ccccc3)c3ccccc3)C2)=C(N)N1 (stereo not drawn) [Azelnidipine]
viability at 10 µM ([1]; run 0524-20 min): 110% | viability at 10 µM ([1]; run 0526-20 min): 87.2% | viability at 10 µM ([1]; run 0529-20 min): 112% | viability at 10 µM ([1]; run 0531-20 min): 93.7% | tumor volume growth, average [2, 9]: 0 mm^3 | tumor volume, average [2, 9]: 0 mm^3 | tumor longest length [2, 9]: 0 mm | tumor volume [2, 9]: 0 mm^3 | tumor volume growth [2, 9]: 0 mm^3 | tumor width [2, 9]: 0 mm | tumor volume growth, average [2, 10]: 25.67 mm^3 | tumor volume, average [2, 10]: 25.67 mm^3 | tumor longest length [2, 11]: 4 mm and 6 mm | tumor volume [2, 11]: 18 mm^3 and 27 mm^3 and 32 mm^3 | tumor volume growth [2, 11]: 18 mm^3 and 27 mm^3 and 32 mm^3 | tumor width [2, 11]: 3 mm and 4 mm | tumor volume growth, average [2, 12]: −50 mm^3 | tumor volume, average [2, 12]: 0 mm^3 | tumor longest length [2, 12]: 0 mm | tumor volume [2, 12]: 0 mm^3 | tumor width [2, 12]: 0 mm | tumor volume growth, average [2, 13]: 57.67 mm^3 | tumor volume, average [2, 13]: 83.33 mm^3 | tumor width [2, 13]: 5 mm | tumor longest length [2, 14]: 7 mm and 6 mm | tumor volume [2, 14]: 87.5 mm^3 and 75 mm^3 | tumor volume growth [2, 14]: 69.5 mm^3 and 48 mm^3 and 55.5 mm^3 | tumor volume growth, average [2, 15]: −33.3333 mm^3 | tumor volume, average [2, 15]: 50 mm^3 | inhibition of tumor growth, high dose compared with low dose (in words) ([2]; high dose, FIG. 3): better effect to inhibit tumor growth | tumor volume growth, average [2, 16]: 2.667 mm^3 | tumor volume, average [2, 16]: 22 mm^3 | tumor volume growth, average [2, 17]: 176.3333 mm^3 | tumor volume, average [2, 17]: 176.3333 mm^3 | tumor longest length [2, 18]: 8 mm and 6 mm and 7 mm | tumor width [2, 18]: 8 mm and 7 mm and 6 mm | tumor volume growth, average [2, 19]: −88 mm^3 | tumor volume, average [2, 19]: 19.33 mm^3 | tumor volume growth, average [2, 20]: −77.5 mm^3 | tumor volume, average [2, 20]: 98.83 mm^3 | tumor longest length [2, 21]: 7 mm and 6 mm and 5 mm | tumor width [2, 21]: 6 mm and 5 mm | tumor volume growth, average [2, 22]: 0 mm^3 | tumor volume, average [2, 22]: 98.83 mm^3 | tumor volume growth [2, 22]: 0 mm^3 | tumor longest length [2, 23]: 7 mm and 6 mm and 5 mm | tumor width [2, 23]: 6 mm and 5 mm | inhibition effect on tumor cells (in words) ([2]; low dose and high dose, FIG. 2): significant inhibition effect | tumor volume (in words) ([2]; low dose and high dose, FIG. 3): reduce the tumor volume | tumor volume growth (in words) ([2]; low dose and high dose, FIG. 3): effectively slow down the tumor volume growth | viability at 72 h, 10 µM ([3]; BEAS-2B bronchial epithelial cells, run 0510-10 min, read-out: viability (survival rate) of BEAS-2B cells): 61.3% | viability at 72 h, 10 µM ([3]; BEAS-2B cells (normal bronchial epithelial cell line), average of 4 tests, read-out: average viability of BEAS-2B cells): 77.5% | viability at 72 h, 10 µM ([3]; BEAS-2B cells (normal bronchial epithelial cell line), run 0512-10 min, read-out: viability (survival rate) of BEAS-2B cells): 61.8% | viability at 72 h, 10 µM ([3]; BEAS-2B cells (normal bronchial epithelial cell line), run 0515-10 min, read-out: viability (survival rate) of BEAS-2B cells): 102% | viability at 72 h, 10 µM ([3]; BEAS-2B cells (normal bronchial epithelial cell line), run 0517-10 min, read-out: viability (survival rate) of BEAS-2B cells): 85.4% | viability at 10 µM ([4]; 786-0, 10 μM, 72 hours, run 0524-10 min, read-out: viability (survival rate) of 786-O cells): 88.6% | viability at 10 µM ([4]; 786-0, 10 μM, 72 hours, run 0526-10 min, read-out: viability (survival rate) of 786-O cells): 79.7% | viability at 10 µM ([4]; 786-0, 10 μM, 72 hours, run 0529-10 min, read-out: viability (survival rate) of 786-O cells): 66.5% | viability at 10 µM ([4]; 786-0, 10 μM, 72 hours, run 0531-10 min, read-out: viability (survival rate) of 786-O cells): 112% | viability at 10 µM ([4]; 786-0, 72 h, 10 μM, average of 4 tests, read-out: average viability of 786-O cells): 86.8% | viability at 10 µM ([4]; 786-0, 72 h, 10 μM, summary (786-O), read-out: Inhibitory effect, Kidney cancer): 86.8% | viability at 10 µM ([5]; 72 h, average of 4 tests, read-out: Average viability of LoVo cells): 59.9% | viability at 10 µM ([5]; 72 hours, run 0616-10 min, read-out: viability (survival rate) of LoVo cells): 49.6% | viability at 10 µM ([5]; 72 hours, run 0619-10 min, read-out: viability (survival rate) of LoVo cells): 67.2% | viability at 10 µM ([5]; 72 hours, run 0621-10 min, read-out: viability (survival rate) of LoVo cells): 62.3% | viability at 10 µM ([5]; 72 hours, run 0623-10 min, read-out: viability (survival rate) of LoVo cells): 60.3% | toxicity to normal cells (in words) (normal cells): no toxicity or had little toxicity | health status / death of tested mice during the treatment (in words) ([6]; both high and low doses): without death | weight ([6]; high dose (200 mg/kg/day) i.p., Fifth measurement, 200 mg/kg/day): 20 g and 21 g | weight [6, 11]: 20 g and 19.5 g | weight ([6]; high dose (200 mg/kg/day) i.p., Fourth measurement, 200 mg/kg/day): 20 g and 21 g | weight [6, 14]: 19 g and 20 g | weight ([6]; high dose (200 mg/kg/day) i.p., Third measurement, 200 mg/kg/day): 20.5 g and 19 g and 20 g | weight ([6]; low dose (100 mg/kg/day) i.p., Fifth measurement, 100 mg/kg/day): 20 g and 21 g | weight [6, 17]: 21 g | weight ([6]; low dose (100 mg/kg/day) i.p., Fourth measurement, 100 mg/kg/day): 20 g and 21 g | weight [6, 21]: 20 g and 19 g | weight [6, 23]: 19.5 g and 19 g and 18.5 g | weight of mice during the experiment (in words) ([6]; low dose and high dose): did not show a significant decrease | viability at 10 µM ([7]; MDA-MB-231, 10 μM, 72 hours, run 0612-10 min, read-out: viability (survival rate) of MDA-MB-231 cells): 70.3% | viability at 10 µM ([7]; MDA-MB-231, 10 μM, 72 hours, run 0614-10 min, read-out: viability (survival rate) of MDA-MB-231 cells): 89.7% | viability at 10 µM ([7]; MDA-MB-231, 72 h, 10 μM, average of the 3 printed tests, read-out: average viability of MDA-MB-231 cells): 86.9% | viability at 10 µM ([8]; NCI-H1650, 10 μM, 72 hours, run 1-10 min, read-out: viability (survival rate) of H1650 cells): 28.8% | viability at 10 µM ([8]; NCI-H1650, 10 μM, 72 hours, run 2-20 min, read-out: viability (survival rate) of H1650 cells): 26.5% | viability at 10 µM ([8]; NCI-H1650, 10 μM, 72 hours, run 3-20 min, read-out: viability (survival rate) of H1650 cells): 40.5% | viability at 10 µM ([8]; NCI-H1650, 10 μM, 72 hours, run 4-20 min, read-out: viability (survival rate) of H1650 cells): 62.7% | viability at 10 µM ([8]; NCI-H1650, 72 h, 10 μM, average of 4 tests, read-out: Average viability of H1650 cells): 39.7%
